{
  "source": "paper PMC11864979",
  "about": "“First-in-class ultralong-target-residence-time p38α inhibitors as a mitosis-targeted therapy for colorectal cancer” (Nature Cancer, 2025)",
  "key": {"PDO8": {"system": "PDO8", "experiment": "cell viability in patient-derived CRC organoids PDO8", "format": "cell-based, human", "method": "(§1) For in vitro treatment studies, organoids were mechanically dissociated and digested using TrypLE supplemented with 100 µg ml^−1 DNaseI and 10.5 µM Y-27632 dihydrochloride (Invitrogen) at 37 °C. A total of 1,000–2,000 single cells were plated per well in white 96-well plates (Greiner) in culture medium containing 10% GFR Matrigel or Cultrex BME. The treatment with doxycycline (5 µg ml^−1), pharmacological inhibitors or corresponding volumes of DMSO was started 24 h after plating. Doxycycline was obtained from Sigma-Aldrich. […] Cell viability was measured by means of CellTiter-Glo 3D or CellTiter-Glo 2.0 reagent (Promega) according to the manufacturers’ instructions and the Infinite M Plex reader (Tecan, i-control version 3.9.1 software). Results were normalized to vehicle (DMSO) or to shNC. For cell-doubling assays, the cell number was quantified at the corresponding time points using Guava EasyCyte flow cytometer (Luminex, CytoSoft v5.2 software)."}, "subcutaneous KAP CRCs": {"system": "subcutaneous KAP CRCs", "experiment": "treatment of subcutaneous KAP tumors in wild-type mice", "format": "in vivo, mouse", "conditions": "Fig. 1j, individual tumors", "quoted_text": "Subcutaneous injection, splenic seeding or cecum injection of organoids was performed in 8–10-week-old C57BL/6 N/Crl, Rag2^−/− (B6.Cg-Rag2^tm1.1Cgn/J), or CB17 Scid beige (CB17.Cg-Prkdc^scidLyst^bg-J/Crl) mice, obtained from Charles River. The organoids were dissociated into single cells, washed with PBS and injected in a 1:1 mixture of PBS and Matrigel. For murine organoids, 1 × 10^5 cells were injected into the left and right flanks or the spleen capsule and 2 × 10^6 cells were injected into the cecum wall. For human organoids, 4 × 10^5 cells were injected into the flanks of CB17 Scid beige mice. For splenic seeding and cecum injection, mice were anaesthetized using ketamine (100 mg kg^−1, intraperitoneally) and xylazin (10 mg/kg, intraperitoneally) in NaCl and a small laparotomy below the thorax was performed.\nNo mice were excluded during treatment studies."}, "KAP^2D cells": {"system": "KAP^2D cells", "experiment": "quantification of viable KAP^2D cells over time (cell-doubling assay)", "format": "cell-based, mouse", "conditions": "Fig. 4i", "quoted_text": "The treatment with doxycycline (5 µg ml^−1), pharmacological inhibitors or corresponding volumes of DMSO was started 24 h after plating. […] Cell viability was measured by means of CellTiter-Glo 3D or CellTiter-Glo 2.0 reagent (Promega) according to the manufacturers’ instructions and the Infinite M Plex reader (Tecan, i-control version 3.9.1 software). Results were normalized to vehicle (DMSO) or to shNC. For cell-doubling assays, the cell number was quantified at the corresponding time points using Guava EasyCyte flow cytometer (Luminex, CytoSoft v5.2 software)."}, "COLO 205": {"system": "COLO 205", "experiment": "cell viability in human CRC cell line COLO 205", "format": "cell-based", "conditions": "for COLO 205 Cell viability (%): 4 d", "method": "To generate KAP^2D cells, KAP organoids were isolated from Matrigel, fragmented by mechanical dissociation and plated without any extracellular matrix on common cell culture dishes. Phoenix-Eco packaging cells (CRL-3214), HCT-15 (CCL-225), HCT 116 (CCL-247), COLO 205 (CCL-222), LS 174T (CL-188), RKO (CRL-2577) and HT-29 (HTB-38) were obtained from the American Type Culture Collection. The cells were cultured at 37 °C and 7% CO2 with RPMI (KAP^2D cells) or DMEM (other cell lines), supplemented with 10% FBS and penicillin–streptomycin. KAP^2D cells were authenticated using PCR (Kras locus and Trp53 locus). Phoenix-Eco packaging cells and HCT-15, HCT 116, COLO 205, LS 174T, RKO and HT-29 cells were authenticated by the provider using short tandem repeat profiling. No commonly misidentified cell lines were used. Mycoplasma contamination was excluded by a PCR-based analysis.\nas §1"}, "PDO12": {"system": "PDO12", "experiment": "cell viability in patient-derived CRC organoids PDO12", "format": "cell-based, human", "method": "as §1"}},
  "note": "Values joined by “and” are separate entries in the source; they are usually repeats but may differ in a detail not shown here. Equal values may be shown once.",
  "data": [
    {"compound": "O=C1c2ccc(Nc3ccc(F)cc3F)cc2CCc2ccc(OC[C@H](O)CO)cc21", "note": "[SKL, skepinone-L, reference compound]", "values": [
      {"measurement": "Cell viability (%)", "setting": "PDO8; PDO8, 0.5 µM, 4 d, 0.5 µM", "result": "95.66% and 98.53% and 69.31%"},
      {"measurement": "Cell viability (%)", "setting": "PDO8; PDO8, 1 µM, 4 days, 1 µM", "result": "101.75% and 85.55% and 77.65%"},
      {"measurement": "Tumor volume (mm³)", "setting": "subcutaneous KAP CRCs; day 0 of treatment", "result": "32.0 mm³ and 62.5 mm³ (2×) and 64.0 mm³ and 75.0 mm³ and 31.5 mm³ and 56.0 mm³ (3×) and 40.0 mm³"},
      {"measurement": "Tumor volume (mm³)", "setting": "subcutaneous KAP CRCs; day 2 of treatment", "result": "56.0 mm³ and 100.0 mm³ and 75.0 mm³ and 108.0 mm³ and 36.0 mm³ and 62.5 mm³ and 64.0 mm³ (3×) and 48.0 mm³"},
      {"measurement": "Tumor volume (mm³)", "setting": "subcutaneous KAP CRCs; day 4 of treatment", "result": "100.0 mm³ and 108.0 mm³ and 87.5 mm³ and 126.0 mm³ and 48.0 mm³ and 75.0 mm³ (4×) and 56.0 mm³"},
      {"measurement": "Tumor volume (mm³)", "setting": "subcutaneous KAP CRCs; day 6 of treatment", "result": "100.0 mm³ (2×) and 112.5 mm³ and 171.5 mm³ and 144.0 mm³ and 56.0 mm³ and 75.0 mm³ (2×) and 108.0 mm³ and 62.5 mm³"},
      {"measurement": "Tumor volume (mm³)", "setting": "subcutaneous KAP CRCs; day 8 of treatment", "result": "144.0 mm³ and 180.0 mm³ (2×) and 162.0 mm³ and 72.0 mm³ and 108.0 mm³ and 126.0 mm³ and 87.5 mm³ and 112.5 mm³ (2×)"},
      {"measurement": "Tumor volume (mm³)", "setting": "subcutaneous KAP CRCs; day 10 of treatment", "result": "180.0 mm³ (2×) and 245.0 mm³ and 171.5 mm³ and 112.5 mm³ and 126.0 mm³ (3×) and 144.0 mm³ and 108.0 mm³"},
      {"measurement": "Tumor volume (mm³)", "setting": "subcutaneous KAP CRCs; day 12 of treatment", "result": "245.0 mm³ and 320.0 mm³ and 196.0 mm³ (3×) and 125.0 mm³ and 171.5 mm³ (2×) and 162.0 mm³ and 144.0 mm³"},
      {"measurement": "Number of cells", "setting": "KAP^2D cells; 0 h of treatment", "result": "41307.05 and 44263.95 and 43595.63 and 48502.24 and 40389.64"},
      {"measurement": "Number of cells", "setting": "KAP^2D cells; 12 h of treatment", "result": "65088.74 and 77948.45 and 80933.57 and 91775.55 and 95176.94 and 93698.43"},
      {"measurement": "Number of cells", "setting": "KAP^2D cells; 24 h of treatment", "result": "83699.30 and 94240.25 and 95144.88 and 126855.10 and 130387.80 and 122006.30"},
      {"measurement": "Number of cells", "setting": "KAP^2D cells; 36 h of treatment", "result": "151900.95 and 118999.57 and 148091.83 and 233974.50 and 200549.50 and 179469.60"},
      {"measurement": "Number of cells", "setting": "KAP^2D cells; 48 h of treatment", "result": "325693.88 and 295126.41 and 320338.47 and 303856.40 and 287208.10 and 301764.60"},
      {"measurement": "Number of cells", "setting": "KAP^2D cells; 60 h of treatment", "result": "579787.04 and 516216.51 and 567999.66 and 537469.80 and 457898.40 and 474698.40"},
      {"measurement": "COLO 205 Cell viability (%)", "setting": "COLO 205; 0.0137 µM", "result": "96.45% and 96.38% and 97.30% and 129.19% and 99.27% and 94.84%"},
      {"measurement": "COLO 205 Cell viability (%)", "setting": "COLO 205; 0.0412 µM", "result": "127.57% and 100.82% and 92.20% and 93.68% and 91.56% and 87.30%"},
      {"measurement": "COLO 205 Cell viability (%)", "setting": "COLO 205; 0.1235 µM", "result": "118.98% and 94.94% and 87.73% and 92.65% and 90.17% and 91.06%"},
      {"measurement": "COLO 205 Cell viability (%)", "setting": "COLO 205; 0.3704 µM", "result": "128.00% and 91.92% and 96.35% and 88.32% and 91.46% and 92.15%"},
      {"measurement": "COLO 205 Cell viability (%)", "setting": "COLO 205; 1.1111 µM", "result": "104.82% and 92.26% and 92.51% and 87.03% and 84.46% and 82.14%"},
      {"measurement": "COLO 205 Cell viability (%)", "setting": "COLO 205; 3.3333 µM", "result": "118.94% and 101.69% and 108.96% and 89.84% and 86.56% and 82.40%"},
      {"measurement": "COLO 205 Cell viability (%)", "setting": "COLO 205; 10.0000 µM", "result": "88.40% and 89.99% and 81.09% and 75.75% and 75.52%"},
      {"measurement": "viability at 10 µM", "setting": "COLO 205; Homo sapiens, COLO 205, 96 h, read-out: COLO 205 Cell viability (%), 10.0000 µM, 4 d", "result": 86.3, "unit": "%"},
      {"measurement": "viability at 0.5 µM", "setting": "PDO12; Homo sapiens, 96 h, read-out: Cell viability (%), PDO12, 0.5 µM, 4 d", "result": 102, "unit": "%"},
      {"measurement": "Cell viability (%)", "setting": "PDO12; PDO12, 0.5 µM, 4 d, 0.5 µM", "result": "113.70% and 97.26%"},
      {"measurement": "Cell viability (%)", "setting": "PDO12; PDO12, 1 µM, 4 days, 1 µM", "result": "108.38% and 136.33% and 112.98%"}
    ]}
  ]
}
